From ChEMBL document CHEMBL5113529, “Design, Synthesis, and Biological Evaluation of Dual-Target COX-2/CYP51 Inhibitors for the Treatment of Fungal Infectious Diseases” (J Med Chem, 2022)
In brackets after ≈: the same amount, converted by molar mass. Activity calls are given as the source filed them. The calls are words filed in the database; no cut-off is given here.

How the values were obtained:
Candida albicans [1] = assay: Antifungal activity against Candida albicans ATCC SC5314 assessed as fungal growth inhibition measured after 72 hrs by double dilution method; format: functional
Cryptococcus neoformans = assay: Antifungal activity against Cryptococcus neoformans ZKCC 2209 assessed as fungal growth inhibition measured after 72 hrs by double dilution method; format: functional
Candida tropicalis = assay: Antifungal activity against Candida tropicalis ATCC 1369 assessed as fungal growth inhibition measured after 72 hrs by double dilution method; format: functional
Pichia kudriavzevii = assay: Antifungal activity against Candida krusei ATCC 6258 assessed as fungal growth inhibition measured after 72 hrs by double dilution method; format: functional
Aspergillus fumigatus = assay: Antifungal activity against Aspergillus fumigatus KM8001 assessed as fungal growth inhibition measured after 72 hrs by double dilution method; format: functional
Candida albicans [2] = assay: Antifungal activity against Candida albicans ATCC SC5314 assessed as decrease in fungal cell density measured at 48 hrs by fluorescence microscopy (reference value: 258%); format: functional; parameters: scale not given: the % may be the effect or the level left
Candida albicans [3] = assay: Antifungal activity against fluconazole- resistant Candida albicans 17# assessed as fungal growth inhibition measured after 72 hrs by double dilution method; format: functional
Candida albicans [4] = assay: Antifungal activity against Candida albicans ATCC SC5314 assessed as decrease in fungal cell density measured immediately by fluorescence microscopy (reference value: 126%); format: functional; parameters: scale not given: the % may be the effect or the level left
[5] = biological target: Prostaglandin G/H synthase 1 (Homo sapiens, UniProt P23219); assay: Inhibition of COX-1 (unknown origin) using arachidonic acid as substrate preincubated for 10 mins followed by substrate addition and measured after 2 mins by immunoassay
Candida albicans [6] = assay: Antifungal activity against fluconazole -resistant Candida albicans 901 assessed as fungal growth inhibition measured after 72 hrs by double dilution method; format: functional
Candida albicans [7] = assay: Antifungal activity against fluconazole -resistant Candida albicans CaR assessed as fungal growth inhibition measured after 72 hrs by double dilution method; format: functional
[8] = biological target: T1, Prostaglandin G/H synthase 2 (Homo sapiens, UniProt P35354); assay: Inhibition of COX-2 (unknown origin) using arachidonic acid as substrate preincubated for 10 mins followed by substrate addition and measured after 2 mins by immunoassay
T1 sequence (P35354 whole entry): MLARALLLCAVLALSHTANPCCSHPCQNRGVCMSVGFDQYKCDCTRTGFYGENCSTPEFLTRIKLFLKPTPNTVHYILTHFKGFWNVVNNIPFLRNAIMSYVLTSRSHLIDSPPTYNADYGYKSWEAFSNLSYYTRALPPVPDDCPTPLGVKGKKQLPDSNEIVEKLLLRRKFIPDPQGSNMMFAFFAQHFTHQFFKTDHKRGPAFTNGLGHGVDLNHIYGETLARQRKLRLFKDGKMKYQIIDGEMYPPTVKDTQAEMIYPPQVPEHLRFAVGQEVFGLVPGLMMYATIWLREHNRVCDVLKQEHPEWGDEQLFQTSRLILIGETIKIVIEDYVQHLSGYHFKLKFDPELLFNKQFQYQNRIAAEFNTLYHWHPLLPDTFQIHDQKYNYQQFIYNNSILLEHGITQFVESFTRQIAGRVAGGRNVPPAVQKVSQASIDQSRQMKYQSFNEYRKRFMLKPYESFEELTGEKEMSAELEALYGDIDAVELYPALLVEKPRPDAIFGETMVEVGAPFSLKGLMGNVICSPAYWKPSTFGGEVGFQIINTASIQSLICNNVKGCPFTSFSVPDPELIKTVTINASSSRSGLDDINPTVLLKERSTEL

Candida albicans [9] = assay: Antifungal activity against fluconazole -resistant Candida albicans 904 assessed as fungal growth inhibition measured after 72 hrs by double dilution method; format: functional
[10] = biological target: Lanosterol 14-alpha demethylase (Candida albicans (strain SC5314 / ATCC MYA-2876) (Yeast), UniProt P10613); assay: Inhibition of CYP51 in Candida albicans SC5314 using Eburicol as substrate preincubated for 20 mins followed by substrate addition and measured after 4 mins by HPLC analysis; format: single protein
Candida albicans [11] = assay: Antifungal activity against Candida albicans ATCC SC5314 assessed as induction of ROS production by measuring fluorescence intensity incubated for 12 hrs by KGT010-1 staining based fluorescence microscopy; format: functional, organism-based
Candida albicans [12] = assay: Antifungal activity against fluconazole -resistant Candida albicans 632 assessed as fungal growth inhibition measured after 72 hrs by double dilution method; format: functional

Chain of Prostaglandin G/H synthase 1 (P23219 whole entry): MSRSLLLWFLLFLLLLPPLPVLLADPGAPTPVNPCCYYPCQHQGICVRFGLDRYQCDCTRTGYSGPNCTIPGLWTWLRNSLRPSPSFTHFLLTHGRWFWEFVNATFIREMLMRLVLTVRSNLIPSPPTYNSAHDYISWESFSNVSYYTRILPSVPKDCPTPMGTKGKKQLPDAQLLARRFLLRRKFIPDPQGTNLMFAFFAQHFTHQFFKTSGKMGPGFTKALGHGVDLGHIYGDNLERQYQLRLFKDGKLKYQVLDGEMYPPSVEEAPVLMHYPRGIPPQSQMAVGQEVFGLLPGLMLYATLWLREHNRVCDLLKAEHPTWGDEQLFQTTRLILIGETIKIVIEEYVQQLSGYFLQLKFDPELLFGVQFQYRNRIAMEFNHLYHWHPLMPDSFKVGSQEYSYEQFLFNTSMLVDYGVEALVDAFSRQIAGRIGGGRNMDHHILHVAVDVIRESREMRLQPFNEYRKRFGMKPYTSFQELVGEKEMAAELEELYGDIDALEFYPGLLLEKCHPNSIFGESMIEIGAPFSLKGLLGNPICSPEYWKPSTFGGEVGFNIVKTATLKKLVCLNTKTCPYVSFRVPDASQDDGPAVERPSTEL
Chain of Lanosterol 14-alpha demethylase (P10613 whole entry): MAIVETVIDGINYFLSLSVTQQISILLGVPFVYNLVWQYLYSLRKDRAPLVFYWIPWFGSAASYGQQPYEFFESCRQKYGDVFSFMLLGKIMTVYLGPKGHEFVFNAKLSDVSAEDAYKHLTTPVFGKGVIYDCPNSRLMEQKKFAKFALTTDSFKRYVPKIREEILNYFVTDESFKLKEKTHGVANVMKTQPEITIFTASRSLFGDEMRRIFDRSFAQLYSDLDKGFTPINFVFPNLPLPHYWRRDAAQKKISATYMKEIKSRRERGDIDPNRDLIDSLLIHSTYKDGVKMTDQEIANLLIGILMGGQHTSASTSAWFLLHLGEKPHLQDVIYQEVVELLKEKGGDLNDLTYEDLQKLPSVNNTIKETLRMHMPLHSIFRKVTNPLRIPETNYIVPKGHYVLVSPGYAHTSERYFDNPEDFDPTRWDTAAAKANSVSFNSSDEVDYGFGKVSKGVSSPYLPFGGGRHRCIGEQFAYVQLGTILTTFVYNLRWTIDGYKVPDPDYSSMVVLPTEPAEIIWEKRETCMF

Row | MIC50 (Candida albicans [1]) | MIC50 (Cryptococcus neoformans) | MIC50 (Candida tropicalis) | MIC50 (Pichia kudriavzevii) | MIC50 (Aspergillus fumigatus) | Compound | Activity (Candida albicans [2]) | MIC50 (Candida albicans [3]) | Activity (Candida albicans [4]) | IC50 [5] | MIC50 (Candida albicans [6]) | MIC50 (Candida albicans [7]) | IC50 [8] | MIC50 (Candida albicans [9]) | IC50 [10] | Activity (Candida albicans [11]) | MIC50 (Candida albicans [12])
1 | 0.5 µg/mL (≈ 1.13 µM) | 0.5 µg/mL (≈ 1.13 µM) | 0.25 µg/mL (≈ 0.565 µM) | 1 µg/mL (≈ 2.26 µM) | 2 µg/mL (≈ 4.52 µM) | C[C@H](C(=O)NC(Cn1cncn1)C(=O)c1ccccc1)c1ccc(-c2ccccc2)c(F)c1 (stereo partly specified) | – | – | – | – | – | – | – | – | – | – | –
2 | 1 µg/mL (≈ 2.36 µM) | 1 µg/mL (≈ 2.36 µM) | 0.5 µg/mL (≈ 1.18 µM) | 2 µg/mL (≈ 4.71 µM) | > 8 µg/mL | CC(C)OC(=O)[C@@H](Cn1cncn1)NC(=O)[C@@H](C)c1ccc(-c2ccccc2)c(F)c1 | – | – | – | – | – | – | – | – | – | – | –
3 | 2 µg/mL (≈ 4.32 µM) | 4 µg/mL (≈ 8.65 µM) | 1 µg/mL (≈ 2.16 µM) | 2 µg/mL (≈ 4.32 µM) | > 8 µg/mL | C[C@H](C(=O)N[C@H](Cn1ccnc1)C(=O)NC1CCCCC1)c1ccc(-c2ccccc2)c(F)c1 | – | – | – | – | – | – | – | – | – | – | –
4 | 1 µg/mL (≈ 2.12 µM) | 0.5 µg/mL (≈ 1.06 µM) | 2 µg/mL (≈ 4.23 µM) | 1 µg/mL (≈ 2.12 µM) | > 8 µg/mL | C[C@H](C(=O)N[C@H](Cn1ccnc1)C(=O)NC1CCCCC1)c1cccc(C(=O)c2ccccc2)c1 | – | – | – | – | – | – | – | – | – | – | –
5 | 1 µg/mL (≈ 2.47 µM) | 1 µg/mL (≈ 2.47 µM) | 0.5 µg/mL (≈ 1.23 µM) | 2 µg/mL (≈ 4.93 µM) | 4 µg/mL (≈ 9.87 µM) | COC(=O)[C@@H](Cn1ccnc1)NC(=O)[C@@H](C)c1cccc(C(=O)c2ccccc2)c1 | – | – | – | – | – | – | – | – | – | – | –
6 | 0.25 µg/mL (≈ 0.655 µM) | 0.58 µg/mL (≈ 1.52 µM) | 1 µg/mL (≈ 2.62 µM) | 1 µg/mL (≈ 2.62 µM) | > 8 µg/mL | COC(=O)[C@@H](Cn1ccnc1)NC(=O)[C@@H](C)c1ccc2cc(OC)ccc2c1 | – | – | – | – | – | – | – | – | – | – | –
7 | 1 µg/mL (≈ 2.53 µM) | 0.5 µg/mL (≈ 1.26 µM) | 2 µg/mL (≈ 5.06 µM) | 0.5 µg/mL (≈ 1.26 µM) | > 8 µg/mL | COC(=O)[C@@H](Cn1ccnc1)NC(=O)[C@@H](C)c1ccc(-c2ccccc2)c(F)c1 | – | – | – | – | – | – | – | – | – | – | –
8 | 0.5 µg/mL (≈ 1.18 µM) | 0.25 µg/mL (≈ 0.59 µM) | 1 µg/mL (≈ 2.36 µM) | 3 µg/mL (≈ 7.08 µM) | > 8 µg/mL | CC(C)OC(=O)[C@@H](Cn1ccnc1)NC(=O)[C@@H](C)c1ccc(-c2ccccc2)c(F)c1 | – | – | – | – | – | – | – | – | – | – | –
9 | 0.5 µg/mL (≈ 1.13 µM) | 0.5 µg/mL (≈ 1.13 µM) | 0.5 µg/mL (≈ 1.13 µM) | 0.25 µg/mL (≈ 0.566 µM) | > 8 µg/mL | C[C@H](C(=O)NC(Cn1ccnc1)C(=O)c1ccccc1)c1ccc(-c2ccccc2)c(F)c1 (stereo partly specified) | – | – | – | – | – | – | – | – | – | – | –
10 | 0.5 µg/mL (≈ 1.18 µM) | 0.5 µg/mL (≈ 1.18 µM) | 2 µg/mL (≈ 4.73 µM) | 1 µg/mL (≈ 2.37 µM) | > 8 µg/mL | CC(C)NC(=O)[C@@H](Cn1ccnc1)NC(=O)[C@@H](C)c1ccc(-c2ccccc2)c(F)c1 | – | – | – | – | – | – | – | – | – | – | –
11 | 0.25 µg/mL (≈ 0.612 µM) | 0.5 µg/mL (≈ 1.22 µM) | 1 µg/mL (≈ 2.45 µM) | 0.25 µg/mL (≈ 0.612 µM) | 4 µg/mL (≈ 9.79 µM) | COc1ccc2cc([C@H](C)C(=O)N[C@H](Cn3ccnc3)C(=O)NC(C)C)ccc2c1 | – | – | – | – | – | – | – | – | – | – | –

Row | Compound | MIC50 (Candida albicans [1]) | MIC50 (Cryptococcus neoformans) | MIC50 (Candida tropicalis) | MIC50 (Pichia kudriavzevii) | MIC50 (Aspergillus fumigatus) | Activity (Candida albicans [2]) | MIC50 (Candida albicans [3]) | Activity (Candida albicans [4]) | IC50 [5] | MIC50 (Candida albicans [6]) | MIC50 (Candida albicans [7]) | IC50 [8] | MIC50 (Candida albicans [9]) | IC50 [10] | Activity (Candida albicans [11]) | MIC50 (Candida albicans [12])
12 | CC(C)OC(=O)[C@@H](Cn1cncn1)NC(=O)[C@@H](C)c1cccc(C(=O)c2ccccc2)c1 | 0.25 µg/mL (≈ 0.575 µM) | 0.25 µg/mL (≈ 0.575 µM) | 0.5 µg/mL (≈ 1.15 µM) | 0.5 µg/mL (≈ 1.15 µM) | 4 µg/mL (≈ 9.21 µM) | 84% | 4 µg/mL (≈ 9.21 µM) | 141% | > 50 µM | 4 µg/mL (≈ 9.21 µM) | 4 µg/mL (≈ 9.21 µM) | 3.41 µM | > 8 µg/mL | 0.2 µM | Active | > 8 µg/mL
